In patent publication US11160816B2, “Composition for treatment of Alzheimer's disease” (GLOVIA COMPANY LIMITED, priority 2017, dated 2021):

Assays:
[1] = system: oligodendrocyte precursor cells (OPCs); experiment: O1 antibody immunostaining of cultivated OPCs, ratio of O1 positive oligodendrocytes (FIG. 3); format: cell-based, mice; settings: final concentration of each 0.1 mM, 48 hours, compared with control
[2] = system: oligodendrocyte precursor cells (OPCs); experiment: Cultivation of oligodendrocyte precursor cells, phase-contrast observation of proliferation and differentiation (FIG. 2); format: cell-based, mice; settings: final concentration of each 10 μM, cultivated for 48 hours, compared with control (PBS alone)
[3] = system: stroke patients; settings: cited from earlier work
[4] = system: mild to moderate Alzheimer patients; settings: 400 mg capsule 3 times per day for 180 days; cited from earlier work
[5] = system: oligodendrocyte progenitor cell; settings: cultivation in the presence of the substance; cited from earlier work
[6] = stroke patients, nonpatent document 6

Structure (SMILES) | ratio of O1 positive oligodendrocytes against the number of total cells [1] | proliferation and differentiation of OPCs (phase-contrast photos) [2] | cognitive abilities ([3]; 1000 mg per day for 28 days, then oral 400 mg per day for 5 months, 2,044 stroke patients) | harmful adverse drug reactions, share of patients [3, 6] | headache, share of patients [3, 6] | heartburn, share of patients [3, 6] | insomnia/agitation, share of patients [3, 6] | patients who hoped for stop of treatment [3, 6] | vomiturition/emesis, share of patients [3, 6] | cognitive function [4] | generation of p-21.5kDaMBP, proliferation and differentiation of oligodendrocyte progenitor cell [5]
C[N+](C)(C)CCOP(=O)([O-])OC[C@H](O)CO [α-GPC, L-α-glycerylphosphorylcholine] | hardly increases compared with the control | proliferation and differentiation of OPCs proceeds | recovery of the patients' cognitive abilities | 2.14% | 0.2% | 0.7% | 0.4% | 0.7% | 0.5% | improving effect on cognitive function | –
C[C@@H]1O[C@@H](OC[C@H]2O[C@@H](Oc3cc(O)c4c(c3)O[C@H](c3ccc(O)cc3)CC4=O)[C@H](O)[C@@H](O)[C@@H]2O)[C@H](O)[C@H](O)[C@H]1O [narirutin] | – | proliferation and differentiation of OPCs proceeds | – | – | – | – | – | – | – | – | promoted the generation of p-21.5kDaMBP
COc1ccc([C@@H]2CC(=O)c3c(O)cc(O[C@@H]4O[C@H](CO[C@@H]5O[C@@H](C)[C@H](O)[C@@H](O)[C@H]5O)[C@@H](O)[C@H](O)[C@H]4O)cc3O2)cc1O [hesperidin] | – | proliferation and differentiation of OPCs proceeds | – | – | – | – | – | – | – | – | promoted the generation of p-21.5kDaMBP
